Structures can show the parent of a compound that is named as a salt.

In general, inhibition refers to the relative decrease from the control value, in per cent.

For one experiment, the target named is Jak2 (human Jak2 kinase domain, amino acids 808-1132) (Homo sapiens (Human), UniProt O60674). Briefly: Jak2 inhibition assay (Omnia kinase assay). Type of experiment: biochemical. Particulars: read-out: Jak2 Enzyme (% inhibition at 1000 nM).
Jak2 (human Jak2 kinase domain, amino acids 808-1132), sequence (O60674 808-1132): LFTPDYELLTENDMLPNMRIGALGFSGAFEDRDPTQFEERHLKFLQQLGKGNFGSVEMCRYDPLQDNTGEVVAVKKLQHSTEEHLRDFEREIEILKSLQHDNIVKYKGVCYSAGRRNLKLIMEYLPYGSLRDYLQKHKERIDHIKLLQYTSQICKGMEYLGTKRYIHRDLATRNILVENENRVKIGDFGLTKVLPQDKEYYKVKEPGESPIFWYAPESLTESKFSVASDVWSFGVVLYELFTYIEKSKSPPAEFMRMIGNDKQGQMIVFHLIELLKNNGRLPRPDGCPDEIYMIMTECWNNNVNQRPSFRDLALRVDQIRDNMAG
Take `O=C(N[C@@H]1CCNC[C@@H]1F)c1cnn2ccc(N3CCC[C@@H]3c3cc(F)ccc3F)nc12` [Example 61, 5-((R)-2-(2,5-difluorophenyl)pyrrolidin-1-yl)-N-((3S,4R)-3-fluoropiperidin-4-yl)pyrazolo[1,5-a]pyrimidine-3-carboxamide Hydrochloride]: the inhibition at 1 µM was found to be 54.4%.

The same experiment, now with this note: read-out: Jak2 Enzyme (% inhibition at 1000 nM), Table 1; 1000 nM test compound.
With `CC1(C)OCC(COc2ccc(F)cc2[C@H]2CCCN2c2ccn3ncc(C(=O)NC4CC4)c3n2)O1` (stereo partly drawn) [Example 204, N-cyclopropyl-5-((2R)-2-(2-((2,2-dimethyl-1,3-dioxolan-4-yl)methoxy)-5-fluorophenyl)pyrrolidin-1-yl)pyrazolo[1,5-a]pyrimidine-3-carboxamide], the inhibition at 1 µM worked out at 37%.

As to `Cc1ncc(F)cc1[C@H]1CCCN1c1ccn2ncc(C(=O)N3CC(O)C3)c2n1` [Example 192, (R)-(5-(2-(5-fluoro-2-methylpyridin-3-yl)pyrrolidin-1-yl)pyrazolo[1,5-a]pyrimidin-3-yl)(3-hydroxyazetidin-1-yl)methanone], the inhibition at 1 µM amounted to 0.3%.

With `CONC(=O)c1cnn2ccc(N3CCC[C@@H]3c3cc(F)ccc3F)nc12` [Example 65, (R)-5-(2-(2,5-difluorophenyl)pyrrolidin-1-yl)-N-methoxypyrazolo[1,5-a]pyrimidine-3-carboxamide], the inhibition at 1 µM is 34.1%.

`O=C(N[C@H]1CC[C@H](O)CC1)c1cnn2ccc(N3CCC[C@@H]3c3cccc(F)c3)nc12` [Example 35, 5-((R)-2-(3-fluorophenyl)pyrrolidin-1-yl)-N-((trans)-4-hydroxycyclohexyl)pyrazolo[1,5-a]pyrimidine-3-carboxamide]: the inhibition at 1 µM turned out to be 77.4%.

`Cn1ccc(NC(=O)c2cnn3ccc(N4CCC[C@@H]4c4cc(F)ccc4F)nc23)n1` [Example 6, (R)-5-(2-(2,5-difluorophenyl)pyrrolidin-1-yl)-N-(1-methyl-1H-pyrazol-3-yl)pyrazolo[1,5-a]pyrimidine-3-carboxamide]: the inhibition at 1 µM turned out to be 12.9%.

On to `COCCOc1ccc(F)cc1[C@H]1CCCN1c1ccn2ncc(C(N)=O)c2n1` [Example 89, (R)-5-(2-(5-fluoro-2-(2-methoxyethoxy)phenyl)pyrrolidin-1-yl)pyrazolo[1,5-a]pyrimidine-3-carboxamide], for which the inhibition at 1 µM came out at 33.1%.

On to `CC1(C)CC[C@H](c2cc(F)ccc2F)N1c1ccn2ncc(C(=O)NC3CC3)c2n1` [Example 68, (R)—N-cyclopropyl-5-(5-(2,5-difluorophenyl)-2,2-dimethylpyrrolidin-1-yl)pyrazolo[1,5-a]pyrimidine-3-carboxamide], for which the inhibition at 1 µM is 23%.

As to `COc1ncc(F)cc1[C@H]1CCCN1c1ccn2ncc(C(=O)NC(C)(C)CF)c2n1` [Example 81, (R)-5-(2-(5-fluoro-2-methoxypyridin-3-yl)pyrrolidin-1-yl)-N-(1-fluoro-2-methylpropan-2-yl)pyrazolo[1,5-a]pyrimidine-3-carboxamide], the inhibition at 1 µM was found to be 54.4%.

For the molecule `COc1ncc(F)cc1[C@H]1CCCN1c1ccn2ncc(C(=O)NC3CCN(S(C)(=O)=O)CC3)c2n1` [Example 162, (R)-5-(2-(5-fluoro-2-methoxypyridin-3-yl)pyrrolidin-1-yl)-N-(1-(methylsulfonyl)piperidin-4-yl)pyrazolo[1,5-a]pyrimidine-3-carboxamide], the inhibition at 1 µM was determined as 66.2%.

Turning to `C[C@H](NC(=O)c1cnn2ccc(N3C[C@@H](O)C[C@@H]3c3cccc(F)c3)nc12)C(F)(F)F` [Example 216, 5-((2R,4S)-2-(3-fluorophenyl)-4-hydroxypyrrolidin-1-yl)-N—((S)-1,1,1-trifluoropropan-2-yl)pyrazolo[1,5-a]pyrimidine-3-carboxamide], the inhibition at 1 µM came to 54%.

On to `CC(C)(CF)NC(=O)c1cnn2ccc(N3CCC[C@@H]3c3cncc(F)c3)nc12` [Example 71, (R)—N-(1-fluoro-2-methylpropan-2-yl)-5-(2-(5-fluoropyridin-3-yl)pyrrolidin-1-yl)pyrazolo[1,5-a]pyrimidine-3-carboxamide], for which the inhibition at 1 µM amounted to 6.2%.

For `O=C(NC1CCC[C@@H]1O)c1cnn2ccc(N3CCCC3c3cncc(F)c3)nc12` (stereo partly drawn) [Example 120, 5-((R)-2-(5-fluoropyridin-3-yl)pyrrolidin-1-yl)-N-((trans)-2-hydroxycyclopentyl)pyrazolo[1,5-a]pyrimidine-3-carboxamide], the inhibition at 1 µM stood at 2.3%.

Consider `NS(=O)(=O)N1CCC(NC(=O)c2cnn3ccc(N4CCC[C@@H]4c4cc(F)ccc4F)nc23)CC1` [Example 45, (R)-5-(2-(2,5-difluorophenyl)pyrrolidin-1-yl)-N-(1-sulfamoylpiperidin-4-yl)pyrazolo[1,5-a]pyrimidine-3-carboxamide], for which the inhibition at 1 µM amounted to 84%.

On to `O=C(NOC[C@@H](O)CO)c1cnn2ccc(N3CCC[C@@H]3c3cc(F)ccc3F)nc12` [Example 88, 5-((R)-2-(2,5-difluorophenyl)pyrrolidin-1-yl)-N—((S)-2,3-dihydroxypropoxy)pyrazolo[1,5-a]pyrimidine-3-carboxamide], for which the inhibition at 1 µM turned out to be 15.1%.

Take `NS(=O)(=O)CCNC(=O)c1cnn2ccc(N3CCC[C@@H]3c3cc(F)ccc3F)nc12` [Example 47, (R)-5-(2-(2,5-difluorophenyl)pyrrolidin-1-yl)-N-(2-sulfamoylethyl)pyrazolo[1,5-a]pyrimidine-3-carboxamide]: the inhibition at 1 µM amounted to 37.3%.

Turning to `CC(C)[C@H](CO)NC(=O)c1cnn2ccc(N3CCC[C@@H]3c3cncc(F)c3)nc12` [Example 122, 5-((R)-2-(5-fluoropyridin-3-yl)pyrrolidin-1-yl)-N-((R)-1-hydroxy-3-methylbutan-2-yl)pyrazolo[1,5-a]pyrimidine-3-carboxamide], the inhibition at 1 µM amounted to 7.4%.

Regarding `COc1ncc(F)cc1[C@H]1CCCN1c1ccn2ncc(C(=O)NCCCCO)c2n1` [Example 151, (R)-5-(2-(5-fluoro-2-methoxypyridin-3-yl)pyrrolidin-1-yl)-N-(4-hydroxybutyl)pyrazolo[1,5-a]pyrimidine-3-carboxamide], the inhibition at 1 µM was 35.6%.

On to `O=C(NC1CC1)c1cnn2ccc(N3CCC[C@@H]3c3cccc(F)c3)nc12` [Example 37, (R)—N-cyclopropyl-5-(2-(3-fluorophenyl)pyrrolidin-1-yl)pyrazolo[1,5-a]pyrimidine-3-carboxamide], for which the inhibition at 1 µM was 25%.

Consider `COCC(O)CNC(=O)c1cnn2ccc(N3CCCC3c3cncc(F)c3)nc12` [Example 119, 5-((R)-2-(5-fluoropyridin-3-yl)pyrrolidin-1-yl)-N-(2-hydroxy-3-methoxypropyl)pyrazolo[1,5-a]pyrimidine-3-carboxamide], for which the inhibition at 1 µM amounted to 1.7%.

For the molecule `Nc1ncc(F)cc1[C@H]1CCCN1c1ccn2ncc(C(=O)N3CCC3)c2n1` [Example 221, (R)-(5-(2-(2-amino-5-fluoropyridin-3-yl)pyrrolidin-1-yl)pyrazolo[1,5-a]pyrimidin-3-yl)(azetidin-1-yl)methanone], the inhibition at 1 µM is -1.2%.

For `NC(=O)c1cnn2ccc(N3CCC[C@@H]3c3cc(F)cc(OCC(O)CO)c3)nc12` (stereo partly drawn) [Example 209, 5-((2R)-2-(3-(2,3-dihydroxypropoxy)-5-fluorophenyl)pyrrolidin-1-yl)pyrazolo[1,5-a]pyrimidine-3-carboxamide], the inhibition at 1 µM turned out to be 5.4%.

As for `CC(C)(CO)CNC(=O)c1cnn2ccc(N3CCC[C@@H]3c3cncc(F)c3)nc12` [Example 125, (R)-5-(2-(5-fluoropyridin-3-yl)pyrrolidin-1-yl)-N-(3-hydroxy-2,2-dimethylpropyl)pyrazolo[1,5-a]pyrimidine-3-carboxamide], the inhibition at 1 µM was determined as 6.1%.

For the molecule `O=C(c1cnn2ccc(N3CCC[C@@H]3c3cncc(F)c3)nc12)N1CC(O)C1` [Example 108, (R)-(5-(2-(5-fluoropyridin-3-yl)pyrrolidin-1-yl)pyrazolo[1,5-a]pyrimidin-3-yl)(3-hydroxyazetid-1-yl)methanone], the inhibition at 1 µM turned out to be 2.8%.

On to `Cc1ncc(F)cc1[C@H]1CCCN1c1ccn2ncc(C(=O)NC(C)C)c2n1` [Example 184, (R)-5-(2-(5-fluoro-2-methylpyridin-3-yl)pyrrolidin-1-yl)-N-isopropylpyrazolo[1,5-a]pyrimidine-3-carboxamide], for which the inhibition at 1 µM was found to be 11.8%.

For the molecule `COc1ccc(F)cc1[C@H]1CCCN1c1ccn2ncc(C(=O)NC3CC3)c2n1` [Example 48, (R)—N-cyclopropyl-5-(2-(5-fluoro-2-methoxyphenyl)pyrrolidin-1-yl)pyrazolo[1,5-a]pyrimidine-3-carboxamide], the inhibition at 1 µM was 72.7%.

Turning to `CC(C)(CO)NC(=O)c1cnn2ccc(N3CCC[C@@H]3c3cc(F)ccc3F)nc12` [Example 8, (R)-5-(2-(2,5-difluorophenyl)pyrrolidin-1-yl)-N-(1-hydroxy-2-methylpropan-2-yl)pyrazolo[1,5-a]pyrimidine-3-carboxamide], the inhibition at 1 µM amounted to 25.7%.

For the molecule `NC(=O)c1cnn2ccc(N3CCC[C@@H]3c3cc(F)ccc3C(F)(F)F)nc12` [Example 64, (R)-5-(2-(5-fluoro-2-(trifluoromethyl)phenyl)pyrrolidin-1-yl)pyrazolo[1,5-a]pyrimidine-3-carboxamide], the inhibition at 1 µM was found to be 60.3%.

Regarding `Cn1cc(F)cc([C@H]2CCCN2c2ccn3ncc(C(=O)NC4CCC4)c3n2)c1=O` [Example 230, (R)-N-cyclobutyl-5-(2-(5-fluoro-1-methyl-2-oxo-1,2-dihydropyridin-3-yl)pyrrolidin-1-yl)pyrazolo[1,5-a]pyrimidine-3-carboxamide], the inhibition at 1 µM was 53.3%.

As to `COc1ncc(F)cc1[C@H]1CCCN1c1ccn2ncc(C(=O)NC3CCN(CCO)CC3)c2n1` [Example 159, (R)-5-(2-(5-fluoro-2-methoxypyridin-3-yl)pyrrolidin-1-yl)-N-(1-(2-hydroxyethyl)piperidin-4-yl)pyrazolo[1,5-a]pyrimidine-3-carboxamide], the inhibition at 1 µM was 28.9%.

Regarding `O=C(N[C@H]1CCC[C@@H]1O)c1cnn2ccc(N3CCC[C@@H]3c3cncc(F)c3)nc12` [Example 103, 5-((R)-2-(5-fluoropyridin-3-yl)pyrrolidin-1-yl)-N-((1S,2S)-2-hydroxycyclopentyl)pyrazolo[1,5-a]pyrimidine-3-carboxamide], the inhibition at 1 µM worked out at 4.5%.

For the origin of these results see patent US10251889B2, “Substituted pyrazolo[1,5-a]pyrimidine compounds as Trk kinase inhibitors” (Array BioPharma, Inc., priority 2009, dated 2019).
